According to ChEMBL document CHEMBL5537211, “Synthesis and Antifungal Activity of Stereoisomers of Mefloquine Analogs” (2024):
≈ marks a conversion by molar mass, not a printed value.

Assays:
Format in all cases: functional
[1] = system: Cryptococcus neoformans; assay: Antifungal activity against Cryptococcus neoformans H99 assessed as fungal growth inhibition incubated for 72 hrs by CLSI protocol based microbroth dilution assay
[2] = system: Candida albicans; assay: Antifungal activity against Candida albicans SC5314 assessed as fungal growth inhibition incubated for 24 hrs by CLSI protocol based microbroth dilution assay
[3] = system: Cryptococcus neoformans; assay: Antifungal activity against Cryptococcus neoformans by CLSI M27-A3 protocol based absorbance assay
[4] = system: Candida albicans; assay: Antifungal activity against Candida albicans by CLSI M27-A3 protocol based absorbance assay
[5] = system: Cryptococcus neoformans; assay: Antifungal activity against Cryptococcus neoformans
[6] = system: Candida albicans; assay: Antifungal activity against Candida albicans
[7] = Selectivity ratio of MIC for antifungal activity against Candida albicans SC5314 to MIC for antifungal activity against Cryptococcus neoformans H99

Row | Structure (SMILES) | MIC [1] [µg/mL] | MIC [2] [µg/mL] | MIC [3] [µg/mL] | MIC [4] [µg/mL] | MIC [5] [µg/mL] | MIC [6] [µg/mL] | Selectivity ratio [7]
1 | O[C@H](c1cc(-c2ccc(Cl)cc2)nc2c(Cl)cccc12)[C@@H]1CCCCN1 | 1 (≈ 2.58 µM) | 4 (≈ 10.3 µM) | – | – | – | – | –
2 | O[C@@H](c1cc(-c2ccc(Cl)cc2)nc2c(Cl)cccc12)[C@@H]1CCCCN1 | 2 (≈ 5.16 µM) | 8 (≈ 20.7 µM) | – | – | – | – | –
3 | O[C@H](c1cc(-c2ccc(Cl)cc2)nc2c(Cl)cccc12)[C@H]1CCCCN1 | 2 (≈ 5.16 µM) | 8 (≈ 20.7 µM) | – | – | – | – | –
4 | O[C@@H](c1cc(-c2ccc(Cl)cc2)nc2c(Cl)cccc12)[C@H]1CCCCN1 | 1 (≈ 2.58 µM) | 4 (≈ 10.3 µM) | – | – | – | – | –
5 | OC(c1cc(-c2ccc(Cl)cc2)nc2c(Cl)cccc12)C1CCCCN1 (racemic) | 2 (≈ 5.16 µM) | 8 (≈ 20.7 µM) | 1 (≈ 2.58 µM) | 4 (≈ 10.3 µM) | – | – | –
6 | Cl.O[C@@H](c1cc(-c2ccc(Cl)cc2)nc2ccccc12)[C@H]1CCCCN1 (racemic) | 8 | 16 | – | – | – | – | –
7 | OC(c1cc(C2CC3CCC2CC3)nc2c(Cl)cc(Cl)cc12)C1CCCCN1 (racemic) | – | – | – | – | 0.4 (≈ 0.954 µM) | 1.5 (≈ 3.58 µM) | –
8 | Cl.O[C@@H](c1cc(-c2ccc(Cl)cc2)nc2ccccc12)[C@@H]1CCCCN1 (racemic) | 16 | 64 | – | – | – | – | –
9 | O[C@@H](c1cc(C(F)(F)F)nc2c(C(F)(F)F)cccc12)[C@H]1CCCCN1 (racemic) [(S,R)-MEFLOQUINE] | 16 (≈ 42.3 µM) | 128 (≈ 338 µM) | – | – | 32 (≈ 84.6 µM) | > 128 | 8
10 | OC(Cn1cncn1)(Cn1cncn1)c1ccc(F)cc1F [FLUCONAZOLE] | 2 (≈ 6.53 µM) | ≤ 0.125 | – | – | – | – | –
